Measured values published in patent US20250332112A1, “IONIZABLE CATIONIC LIPIDS FOR LIPID NANOPARTICLES” (GENEVANT SCIENCES GMBH, priority 2022, published 2025).

Key:
[1] = Particle characteristics of LNPs containing luciferase mRNA and novel ionizable lipids; assay type: physicochemical
Method in brief: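 LNPs made from PEG-lipid, ionizable lipid, cholesterol and phospholipid in ethanol, T-mixed with luciferase mRNA in 100 mM acetate pH 5. Products were dialysed, concentrated, and dialysed into 5 mM Tris, 10% sucrose, pH 8, then 0.2 μm filtered. mRNA was measured by RiboGreen, and size and polydispersity by dynamic light scattering on a Zetasizer.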

[2] = Parent ionizable lipid remaining in liver at 24 h after EGFP mRNA LNP (LC-MS); assay type: in vivo; details: 24 h after IV 0.5 mg/kg EGFP mRNA LNP, female BALB/c mice (n = 4)
[3] = Table 1, luciferase mRNA LNP 1.6:54.6:32.8:10.9
[4] = Table 2, luciferase mRNA LNP 1.6:54.6:32.8:10.9
[5] = Table 3, luciferase mRNA LNP 1.6:54.6:32.8:10.9
[6] = Table 4, luciferase mRNA LNP 1.6:54.6:32.8:10.9
[7] = Table 5, luciferase mRNA LNP 1.6:54.6:32.8:10.9
[8] = Table 6, luciferase mRNA LNP 1.6:54.6:32.8:10.9
[9] = Table 7, luciferase mRNA LNP 1.6:54.6:32.8:10.9

For `CCCCC/C=C\CCCC(CCC/C=C\CCCCC)C(CCC/C=C\CCCCC)OC(=O)CCCCN(C)C` (stereo not shown) [Compound 13-B43, reference compound], the “Final Product % EE” value [1, 3] was 94%, the “Final Product PDI” value [1, 3] was 0.13 and the “Final Product Z-avg” value ([1]; Table 1, luciferase mRNA LNP 1.6:54.6:32.8:10.9 PEG2000-C-DMA:Ionizable lipid:Cholesterol:DSPC) was 70 nm. The “Final Product % EE” value [1, 4] was 99%, the “Final Product PDI” value [1, 4] was “(0.03)” and the “Final Product Z-avg” value [1, 4] was 72 nm. The “Final Product % EE” value [1, 5] was 99%, the “Final Product PDI” value [1, 5] was 0.06 and the “Final Product Z-avg” value [1, 5] was 72 nm. For the same molecule, the “Final Product % EE” value [1, 6] was 98%, the “Final Product PDI” value [1, 6] was 0.07 and the “Final Product Z-avg” value [1, 6] was 72 nm. For the same molecule, the “Final Product % EE” value [1, 7] was 98%, the “Final Product PDI” value [1, 7] was 0.06 and the “Final Product Z-avg” value [1, 7] was 69 nm. For the same molecule, the “Final Product % EE” value [1, 8] was 99%, the “Final Product PDI” value [1, 8] was 0.07 and the “Final Product Z-avg” value [1, 8] was 77 nm. For the same molecule, the “Final Product % EE” value [1, 9] was 98%, the “Final Product PDI” value [1, 9] was 0.06 and the “Final Product Z-avg” value [1, 9] was 74 nm. The “Parent ionizable lipid remaining in liver, Average” value (“Parent ionizable lipid remaining” for short) ([2]; Table 28) was 38.48 nmol/g liver, the “Parent ionizable lipid remaining” value ([2]; Table 29) was 29.77 nmol/g liver and the “Parent ionizable lipid remaining” value ([2]; Table 30) was 50.86 nmol/g liver. The “Parent ionizable lipid remaining” value ([2]; Table 31) was 23.9 nmol/g liver.
